The values that follow come from patent publication EP4745137A1 (Gluetacs Therapeutics (Shanghai) Co., Ltd., priority 2023, dated 2025).

The target of test [1] is T1, CK1α (Homo sapiens, UniProt P48729+Q96SW2).
T1 construct: endogenous in cells; host or cells: hPBMCs (Milecell Biotechnologies)
Description: Western-blot assay of substrate protein degradation in hPBMCs, CK1α. The format is cell-based. The settings on record: 24 hours of compound treatment, 50 nM and 500 nM tested (concentration behind the class not stated).

Test [2] relates to Human acute T lymphocytic leukemia cells (Molt-4). Kind of test: Tumor cell proliferation inhibition (CellTiter-Meiluncell Luminescent Cell Viability Assay), Molt-4.
Test [3] concerns the target T2, IKZF2 (Homo sapiens, UniProt Q96SW2+Q9UKS7).
T2 construct: endogenous in cells; host or cells: hPBMCs (Milecell Biotechnologies)
Description: Western-blot assay of substrate protein degradation in hPBMCs, IKZF2. The conditions noted are these: 24 hours of compound treatment, 50 nM and 500 nM tested (concentration behind the class not stated). The class given is cell-based.

Test [4] concerns Kasumi-1. Kind of test: Tumor cell proliferation inhibition (CellTiter-Meiluncell Luminescent Cell Viability Assay), Kasumi-1. The conditions noted are these: Homo sapiens.
Description: (§1) On the following day, the test compounds of the present disclosure were subjected to serial dilution. […] Subsequently, 0.5 µL of the test compound dilution was transferred into the 96-well plate containing the cells, with each well containing 100 µL of cell culture medium. […] Into the 96-well plate, the diluted test compounds and corresponding detection reagents were added, resulting in final test compound concentrations of 500 nM and 10 nM, respectively. The experimental procedure is described below using the diluted 2 µM test compound as an example.
(§2) After the cells were treated with the compounds of the present disclosure for a specified period (the treatment durations were shown in Table 3), the cell viability assay reagent was added to the culture medium according to the kit's instructions to determine cell viability. […] All controls were treated using the same procedure as the compounds of the present disclosure. The growth inhibition curves for the compounds of the present disclosure were plotted using Prism GraphPad software, and the IC50 values were calculated therefrom.
Test [5] relates to Human breast cancer cells (MDA-MB-231). Description: Tumor cell proliferation inhibition (CellTiter-Meiluncell Luminescent Cell Viability Assay), MDA-MB-231.
Test [6] deals with T3, GSPT1 (Homo sapiens, UniProt P15170+Q96SW2).
T3 construct: endogenous in cells; host or cells: hPBMCs (Milecell Biotechnologies)
T3 sequence (P15170 whole entry): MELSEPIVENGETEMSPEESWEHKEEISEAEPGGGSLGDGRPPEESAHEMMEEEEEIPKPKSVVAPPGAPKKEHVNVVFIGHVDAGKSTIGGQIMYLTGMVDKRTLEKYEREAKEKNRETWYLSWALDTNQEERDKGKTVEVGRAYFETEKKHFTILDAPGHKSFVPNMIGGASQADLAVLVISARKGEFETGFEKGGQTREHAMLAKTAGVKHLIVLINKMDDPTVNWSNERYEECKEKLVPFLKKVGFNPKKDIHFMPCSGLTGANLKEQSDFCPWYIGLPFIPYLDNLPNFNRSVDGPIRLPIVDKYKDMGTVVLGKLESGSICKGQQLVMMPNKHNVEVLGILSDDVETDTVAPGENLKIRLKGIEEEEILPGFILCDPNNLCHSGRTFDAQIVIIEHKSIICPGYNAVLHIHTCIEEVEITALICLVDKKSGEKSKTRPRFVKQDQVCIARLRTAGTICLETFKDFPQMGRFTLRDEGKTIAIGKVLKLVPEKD
T3 sequence (Q96SW2 whole entry): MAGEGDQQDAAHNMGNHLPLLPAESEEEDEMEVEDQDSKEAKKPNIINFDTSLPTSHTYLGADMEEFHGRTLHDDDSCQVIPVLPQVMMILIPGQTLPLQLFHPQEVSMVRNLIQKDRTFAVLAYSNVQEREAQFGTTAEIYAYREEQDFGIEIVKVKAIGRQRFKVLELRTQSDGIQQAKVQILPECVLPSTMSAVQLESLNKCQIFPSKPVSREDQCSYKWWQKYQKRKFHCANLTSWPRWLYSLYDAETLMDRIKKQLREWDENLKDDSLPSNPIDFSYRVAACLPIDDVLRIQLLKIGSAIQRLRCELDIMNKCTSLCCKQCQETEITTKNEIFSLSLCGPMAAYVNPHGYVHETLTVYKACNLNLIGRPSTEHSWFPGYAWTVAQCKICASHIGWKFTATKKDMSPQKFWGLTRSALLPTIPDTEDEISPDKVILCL
T3 sequence (Q16531 whole entry partner): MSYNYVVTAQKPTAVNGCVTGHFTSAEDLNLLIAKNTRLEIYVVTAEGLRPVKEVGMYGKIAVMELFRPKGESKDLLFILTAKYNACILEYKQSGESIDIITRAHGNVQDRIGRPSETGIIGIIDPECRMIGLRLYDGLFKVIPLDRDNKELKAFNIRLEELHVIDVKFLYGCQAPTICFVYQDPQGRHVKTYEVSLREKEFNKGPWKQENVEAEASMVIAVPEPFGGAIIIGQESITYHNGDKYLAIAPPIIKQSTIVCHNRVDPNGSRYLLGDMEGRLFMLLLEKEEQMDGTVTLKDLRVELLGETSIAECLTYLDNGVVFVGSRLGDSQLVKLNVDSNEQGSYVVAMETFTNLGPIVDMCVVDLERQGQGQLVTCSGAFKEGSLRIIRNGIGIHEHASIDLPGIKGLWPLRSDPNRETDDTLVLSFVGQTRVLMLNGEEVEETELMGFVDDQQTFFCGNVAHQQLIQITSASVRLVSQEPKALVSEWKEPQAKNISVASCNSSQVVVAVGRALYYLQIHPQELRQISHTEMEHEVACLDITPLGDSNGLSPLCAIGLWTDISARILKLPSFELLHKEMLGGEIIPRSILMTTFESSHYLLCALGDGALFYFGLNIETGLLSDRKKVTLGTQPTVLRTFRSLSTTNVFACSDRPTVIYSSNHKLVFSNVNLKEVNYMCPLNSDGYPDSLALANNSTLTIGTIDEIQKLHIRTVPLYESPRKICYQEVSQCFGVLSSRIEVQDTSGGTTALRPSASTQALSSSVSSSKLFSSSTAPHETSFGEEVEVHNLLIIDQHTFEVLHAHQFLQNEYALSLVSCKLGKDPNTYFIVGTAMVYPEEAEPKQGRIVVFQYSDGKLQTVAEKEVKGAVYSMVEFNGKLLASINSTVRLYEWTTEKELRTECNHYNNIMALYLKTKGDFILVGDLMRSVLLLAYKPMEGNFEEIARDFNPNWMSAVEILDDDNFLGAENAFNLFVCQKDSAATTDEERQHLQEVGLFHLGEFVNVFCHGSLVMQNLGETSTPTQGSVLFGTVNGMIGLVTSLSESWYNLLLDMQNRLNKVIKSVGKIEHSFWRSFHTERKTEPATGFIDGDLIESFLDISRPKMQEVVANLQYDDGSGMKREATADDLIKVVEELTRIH
Kind of test: Western-blot assay of substrate protein degradation in hPBMCs, GSPT1. The format is cell-based. The settings on record: 24 hours of compound treatment, 50 nM and 500 nM tested (concentration behind the class not stated).

Test [7] deals with T4, IKZF3 (Homo sapiens, UniProt Q96SW2+Q9UKT9).
T4 construct: endogenous in cells; host or cells: hPBMCs (Milecell Biotechnologies)
T4 sequence (Q9UKT9 whole entry): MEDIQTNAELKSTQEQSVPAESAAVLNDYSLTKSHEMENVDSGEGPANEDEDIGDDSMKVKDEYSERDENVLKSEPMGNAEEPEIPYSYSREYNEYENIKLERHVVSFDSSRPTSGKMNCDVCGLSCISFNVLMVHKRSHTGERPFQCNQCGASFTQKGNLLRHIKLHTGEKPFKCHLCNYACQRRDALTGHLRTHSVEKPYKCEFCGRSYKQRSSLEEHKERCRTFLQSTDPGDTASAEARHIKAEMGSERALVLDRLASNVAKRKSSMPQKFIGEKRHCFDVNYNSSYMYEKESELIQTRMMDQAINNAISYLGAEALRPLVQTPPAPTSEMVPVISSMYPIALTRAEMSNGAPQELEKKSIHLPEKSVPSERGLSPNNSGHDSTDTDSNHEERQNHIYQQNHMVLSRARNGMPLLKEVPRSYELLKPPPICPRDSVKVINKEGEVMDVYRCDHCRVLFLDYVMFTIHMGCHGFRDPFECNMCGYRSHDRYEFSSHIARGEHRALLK
T4 sequence (Q96SW2 whole entry): as the sequence (Q96SW2 whole entry) above
T4 sequence (Q16531 whole entry partner): as the sequence (Q16531 whole entry partner) above
Kind of test: Western-blot assay of substrate protein degradation in hPBMCs, IKZF3. The conditions noted are these: 24 hours of compound treatment, 50 nM and 500 nM tested (concentration behind the class not stated). The class given is cell-based.

Test [8] concerns CCRF-CEM. Kind of test: Tumor cell proliferation inhibition (CellTiter-Meiluncell Luminescent Cell Viability Assay), CCRF-CEM. The settings on record: Homo sapiens.
Description: The tumor cells used herein were cultured in a cell culture medium listed in table 2 at 37°C in an incubator with 5% CO2. Prior to experimentation, all cell lines used were correctly identified by STR profiling, and tested negative for mycoplasma contamination using a mycoplasma detection kit through routine screenings.
as §1, §2
The target of test [9] is T5, WEE1 (Homo sapiens, UniProt P30291+Q96SW2).
T5 construct: endogenous in cells; host or cells: hPBMCs (Milecell Biotechnologies)
T5 sequence (P30291 whole entry): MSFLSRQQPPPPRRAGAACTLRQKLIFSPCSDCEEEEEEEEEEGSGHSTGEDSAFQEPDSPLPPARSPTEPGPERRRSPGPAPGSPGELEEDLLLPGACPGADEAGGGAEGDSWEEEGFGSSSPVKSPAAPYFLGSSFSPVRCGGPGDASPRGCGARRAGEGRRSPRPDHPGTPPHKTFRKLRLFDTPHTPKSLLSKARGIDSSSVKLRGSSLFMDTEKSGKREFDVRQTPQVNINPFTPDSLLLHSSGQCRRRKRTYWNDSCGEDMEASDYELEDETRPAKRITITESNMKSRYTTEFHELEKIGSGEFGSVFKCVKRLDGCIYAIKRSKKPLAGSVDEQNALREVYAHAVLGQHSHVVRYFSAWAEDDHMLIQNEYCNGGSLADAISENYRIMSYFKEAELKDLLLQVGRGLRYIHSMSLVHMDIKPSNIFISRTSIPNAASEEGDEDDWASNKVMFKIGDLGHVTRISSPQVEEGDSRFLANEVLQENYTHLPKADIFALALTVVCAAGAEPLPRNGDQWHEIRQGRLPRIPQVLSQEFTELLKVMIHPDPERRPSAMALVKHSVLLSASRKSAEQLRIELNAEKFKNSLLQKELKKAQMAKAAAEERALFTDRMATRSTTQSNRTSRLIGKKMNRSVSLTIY
T5 sequence (Q96SW2 whole entry): as the sequence (Q96SW2 whole entry) above
T5 sequence (Q16531 whole entry partner): as the sequence (Q16531 whole entry partner) above
Description: Western-blot assay of substrate protein degradation in hPBMCs, WEE1. The class given is cell-based. The settings on record: 24 hours of compound treatment, 50 nM and 500 nM tested (concentration behind the class not stated).

Test [10] concerns the target T6, IKZF1 (Homo sapiens, UniProt Q13422+Q96SW2).
T6 construct: endogenous in cells; host or cells: hPBMCs (Milecell Biotechnologies)
Kind of test: Western-blot assay of substrate protein degradation in hPBMCs, IKZF1. The conditions noted are these: 24 hours of compound treatment, 50 nM and 500 nM tested (concentration behind the class not stated). The class given is cell-based.

T6 sequence (Q13422 whole entry): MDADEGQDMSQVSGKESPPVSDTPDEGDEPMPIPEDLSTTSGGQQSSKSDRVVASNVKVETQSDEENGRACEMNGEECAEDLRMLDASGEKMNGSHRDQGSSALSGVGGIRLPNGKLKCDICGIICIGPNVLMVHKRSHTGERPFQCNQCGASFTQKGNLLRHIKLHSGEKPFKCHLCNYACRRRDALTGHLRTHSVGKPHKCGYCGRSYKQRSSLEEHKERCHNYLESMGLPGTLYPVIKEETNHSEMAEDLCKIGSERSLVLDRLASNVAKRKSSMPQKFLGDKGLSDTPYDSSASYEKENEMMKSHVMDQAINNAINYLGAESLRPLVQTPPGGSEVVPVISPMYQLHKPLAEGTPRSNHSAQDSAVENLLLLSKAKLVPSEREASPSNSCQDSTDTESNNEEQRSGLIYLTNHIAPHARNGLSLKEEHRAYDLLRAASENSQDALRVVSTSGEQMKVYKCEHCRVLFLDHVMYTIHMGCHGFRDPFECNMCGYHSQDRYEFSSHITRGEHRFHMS
T6 sequence (Q96SW2 whole entry): as the sequence (Q96SW2 whole entry) above
T6 sequence (Q16531 whole entry partner): as the sequence (Q16531 whole entry partner) above
T1 sequence (P48729 whole entry): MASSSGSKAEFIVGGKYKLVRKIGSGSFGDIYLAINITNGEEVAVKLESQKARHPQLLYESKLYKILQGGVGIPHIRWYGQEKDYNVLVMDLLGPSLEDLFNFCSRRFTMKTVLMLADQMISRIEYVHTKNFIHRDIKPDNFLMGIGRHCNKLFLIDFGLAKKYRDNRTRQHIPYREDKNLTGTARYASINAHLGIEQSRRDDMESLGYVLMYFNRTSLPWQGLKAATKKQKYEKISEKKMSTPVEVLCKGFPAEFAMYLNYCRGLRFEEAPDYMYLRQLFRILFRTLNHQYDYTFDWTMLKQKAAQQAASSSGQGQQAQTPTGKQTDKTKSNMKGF
T1 sequence (Q96SW2 whole entry): as the sequence (Q96SW2 whole entry) above
T1 sequence (Q16531 whole entry partner): as the sequence (Q16531 whole entry partner) above

The term inhibition denotes the percentage by which the read-out fell short of the control. On to `O=C1CCC(N2C(=O)c3ccc(CN4CCN(c5nc(N6CCCCC6)nc6c5SCC6)CC4)cc3C2=O)C(=O)N1` (centres unmarked) [GT-08003, 2-(2,6-dioxopiperidin-3-yl)-5-((4-(2-(piperidin-1-yl)-6,7-dihydrothieno[3,2-d]pyrimidin-4-yl)piperazin-1-yl)methyl)isoindoline-1,3-dione], for which, in test [1], the “CK1a substrate protein remaining %” value is reported as “A (0% ≤ substrate protein remaining % ≤ 80%)”. For the same molecule, the inhibition at 0.01 µM in test [2] (MOLT-4, read-out: Inhibition rate (%) at 10 nM) was in the range of 20 to 30%; in test [4] (Kasumi 1, read-out: Inhibition rate (%) at 10 nM), 5 to 10%; in test [5] (MDA-MB-231, read-out: Inhibition rate (%) at 10 nM), 30 to 40%; in [8] (read-out: Inhibition rate (%) at 10 nM) it was 20 to 30%. The inhibition at 0.5 µM fell in the range of 90 to 100% in test [2] (MOLT-4, read-out: Inhibition rate (%) at 500 nM); 80 to 90% in test [4] (Kasumi 1, read-out: Inhibition rate (%) at 500 nM); 30 to 40% in test [5] (MDA-MB-231, read-out: Inhibition rate (%) at 500 nM); 90 to 100% in test [8] (read-out: Inhibition rate (%) at 500 nM). For the same molecule, the “IKZF2 substrate protein remaining %” value in [3] is recorded as “A (0% ≤ substrate protein remaining % ≤ 80%)”. In addition, the “GSPT1 substrate protein remaining %” value in test [6] is “A (0% ≤ substrate protein remaining % ≤ 80%)”. Also, in test [7], the “IKZF3 substrate protein remaining %” value is “A (0% ≤ substrate protein remaining % ≤ 80%)”. Also, the “Weel substrate protein remaining %” value in test [9] is recorded as “B (80%< substrate protein remaining %≤ 100%)”. Further, in test [10], the “IKZF 1 substrate protein remaining %” value is on record as “A (0% ≤ substrate protein remaining % ≤ 80%)”.
